Where “and” joins values, the source holds several entries; their conditions need not be identical. Equal entries are not always repeated.

In the assay the test system is Coll1a1. As to the kind of experiment: DIN mouse model: hepatic Coll1a1 (collagen 1α1) gene expression. The class given is in vivo. Also noted: mean liver collagen α1(I) mRNA: unit not given here. The conditions noted are these: for Coll1a1 Dct / Coll1a1 2^DDct / Coll1a1 DDct / Coll1a1 (Ct): liver, 20 mg/kg group. As to the method: Gene expression analysis. Hepatic expression levels of genes involved in lipid metabolism (FAS, SREBP1, ACC1, SCD1), cholesterol metabolism (HMG-CoAR, LDLR), SREBP proteolysis (SCAP, INSIG1), ER stress (PERK), oxidative stress (NRF2), inflammation (MCP-1), and fibrosis (collagen 1α1) were quantified by RTqPCR. Expression level was normalized to 18S gene expression and relative expression to vehicle group was calculated with the […] method.
Male C57Bl/6J mice (8 weeks old) were housed in enriched ventilated cages (31×12.5×12.7 cm) throughout the experimental phase. Animals' cages litters were changed at least once a week. Animal were housed 5 per cage on inverted 12-hour light cycle (at 09:00 am lights off), 22±2° C. and 55±10% relative humidity. The acclimation period was 20 days. During the acclimation period, all mice were fed a standard diet (RM1 (E) 801492, SDS) and tap water ad libitum. After the acclimation period, mice were fed with the DIN diet (60% fat, cholesterol enriched) and fructose-enriched tap water ad libitum until the end of the experiment.
At 6 weeks of diet, mice were 4-hour fasted (09:00 am to 1:00 pm) and blood (150 μl/EDTA) was collected at 01:00 pm by retro-orbital bleeding under isoflurane anesthesia. Mice were then allocated in 2 homogenous groups (n=12/group) according to their plasma levels of ALT (average levels: 685U/L), AST (average levels: 627U/L) and HOMA-IR index (average value: 4.7), into 2 homogenous groups (see values at day 0 in Tables 15A and 15B ALT/AST and Tables 16A and 16B for HOMA-IR). Mice were then treated once daily by oral gavage with vehicle (Group 1) or Compound #37 at 20 mg/kg (Group 2) for 70 days.
Hepatic expression levels of genes involved in lipid (FAS, SREBP1, ACC1, SCD1), cholesterol metabolism (HMG-CoAR, LDLR), in SREBP proteolysis (SCAP, INSIG1), in ER stress (PERK), oxidative stress (NRF2), and inflammation (MCP-1) were not changed. However, expression of collagen 1α1, involved in liver fibrosis, was reduced by 66% in mice treated with Compound #37 (p<0.05 vs. vehicle).

The mark [1] stands for this setting: individual animals, vs vehicle mean, 20 mg/kg.

Consider `CC(C)Cc1cc(-c2nc(-c3ccc(NS(=O)(=O)C(F)(F)F)cc3Cl)cs2)ccn1` [Compound 37, N-(3-chloro-4-(2-(2-isobutylpyridin-4-yl)thiazol-4-yl)phenyl)-1,1,1-trifluoromethanesulfonamide], for which, for the setting “20 mg/kg, 70 days, p<0.05 vs. vehicle”, the “expression of collagen 1α1 reduction” value is reported as 66%. In addition, under “20 mg/kg/day, 10 weeks, vehicle 1.45%, p<0.05”, the “mean liver collagen α1(I) mRNA” value is recorded as 0.49. Further, the “Coll1a1 Dct” value (individual animals, normalised to 18S, 20 mg/kg) is 15 and 14.23 and 17.82 and 16.38 and 15.37 and 15.65 and 15.13 and 16.1 and 16.14 and 17.48 and 12.82. In addition, under setting [1], the “Coll1a1 2^DDct” value was 0.48 and 0.82 and 0.07 and 0.19 and 0.37 and 0.31 and 0.44 and 0.23 and 0.22 and 0.09 and 2.19; the “Coll1a1 DDct” value was 1.05 and 0.28 and 3.87 and 2.43 and 1.42 and 1.7 and 1.18 and 2.15 and 2.19 and 3.53 and −1.13. Moreover, the “Coll1a1 (Ct)” value (individual animals, 20 mg/kg) is 27.55 and 26.78 and 30.66 and 28.81 and 27.72 and 28.24 and 26.86 and 28.61 and 27.64 and 29.03 and 25.17. Besides, under “mean, n 11”, the “Coll1a1 2^DDct” value amounted to 0.49, the “Coll1a1 (Ct)” value is listed as 27.9, the “Coll1a1 DDct” value came out at 1.70 and the “Coll1a1 Dct” value was 15.6.

Values taken from US10183015B2, “Heterocyclic compounds and methods of use” (Medivation Technologies LLC, priority 2015, dated 2019).
